In US20070254312A1, “Protein Kinase Inhibitors and Methods for Identiying Same” (priority 2004, published 2007):
pKi: −log10 of the molar value. Where two headings read alike, the source gives them in different places. Starred links: 1 amine or outer side, 2 acyl side, 3 side chain; linkers in the order of their positions; H or OH if unused. Non-standard residues stand in square brackets, D forms with d. Residues, ends and D or L forms follow the SMILES beside them. *: point of attachment. Benzoyl(4-(pyrrol-1-yl)) = O=C(c1ccc(-n2cccc2)cc1)*; Phenylacetyl(3,4-Cl2) = O=C(Cc1ccc(Cl)c(Cl)c1)*; Cysteamide = C(CS[*:3])N[*:1]; Dap = NC[C@H](N)C(=O)O

Tests used:
PKC ι = target: T1, PKC ι (Homo sapiens, UniProt P41743); conditions: literature values; relative to most potently inhibited isoform (=1); cited from earlier work
T1 construct: purchased Panvera
T1 sequence (P41743 1-596): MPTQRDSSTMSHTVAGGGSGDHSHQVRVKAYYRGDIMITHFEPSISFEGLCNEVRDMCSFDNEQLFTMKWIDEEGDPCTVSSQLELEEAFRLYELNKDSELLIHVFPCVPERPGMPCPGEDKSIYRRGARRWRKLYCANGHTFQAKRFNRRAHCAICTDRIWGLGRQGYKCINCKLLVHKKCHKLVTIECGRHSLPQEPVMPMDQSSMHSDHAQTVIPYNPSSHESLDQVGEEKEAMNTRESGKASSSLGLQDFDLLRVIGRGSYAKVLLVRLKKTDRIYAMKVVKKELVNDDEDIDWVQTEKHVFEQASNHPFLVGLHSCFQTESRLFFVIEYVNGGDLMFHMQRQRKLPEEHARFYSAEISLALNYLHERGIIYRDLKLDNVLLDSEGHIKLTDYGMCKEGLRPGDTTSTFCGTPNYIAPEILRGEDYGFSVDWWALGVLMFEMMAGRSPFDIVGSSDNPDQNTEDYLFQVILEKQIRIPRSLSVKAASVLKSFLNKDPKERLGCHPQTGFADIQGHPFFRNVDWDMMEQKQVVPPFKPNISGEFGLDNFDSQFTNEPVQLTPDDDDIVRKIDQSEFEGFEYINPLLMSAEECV

PKCδ [1] = target: T2, PKCδ (Homo sapiens, UniProt Q05655); parameters: purchased Panvera; conditions: literature values; relative to most potently inhibited isoform (=1); cited from earlier work
PKCα [2] = target: T3, PKCα (Homo sapiens, UniProt P17252); assay: Protein Kinase Cα radioactive assay, peptide substrate Ac-Ser-Phe-Arg-Arg-Arg-NH2 (Example 1); type: biochemical; parameters: purchased Pan Vera; conditions: versus variable peptide substrate
Experimental: Protein Kinase C Assay (general). The peptides […] (for PKC α, β and γ) and acetyl-[…] (for PKC ε and ζ) were used as substrates. […] Total reaction volume was 50 μL. […] Following an additional 5 min incubation at ambient temperature, 75 μL from each reaction well was transferred into each well of a Unifilter (P81 cellulose phosphate paper) assay plate and washed four times with 0.1% phosphoric acid in water. […] IC50 values were calculated using GraFit (Erithacus Software Limited) and Ki values were calculated using Enzyme Kinetics, SigmaPlot (SPSS Inc.) […] An analogous protocol was employed for peptide 4 versus variable [[…]]. […] An analogous protocol was employed for peptide 4 versus variable [ATP]. Protein Kinase Cα Assay (Ki determination for peptide 6 versus variable […] substrate). […] The reaction was initiated as described above. […] Following an additional 5 min incubation at ambient temperature, 75 μL from each reaction well was transferred into each well of a Unifilter (P81 cellulose phosphate paper) assay plate and washed four times with 0.1% phosphoric acid in water. […] IC50 values were calculated using GraFit (Erithacus Software Limited) and Ki values were calculated using Enzyme Kinetics, SigmaPlot (SPSS Inc.)

PKCα [3] = target: T3, PKCα; conditions: cited from earlier work
PKCη [4] = target: T4, PKCη (Homo sapiens, UniProt P24723); parameters: purchased Panvera; conditions: literature values; relative to most potently inhibited isoform (=1); cited from earlier work
PKCδ [5] = target: T2, PKCδ; assay: PKC isoform assay, Example 1; type: biochemical; parameters: purchased Pan Vera
Source text: (§1) Protein Kinase C Assay (general). The peptides Ac-Ser-Phe-Arg-Arg-Arg-NH2 (for PKC α, β and γ) and acetyl-[…]NH2 (for PKC ε and ζ) were used as substrates.

PKCθ = PKCθ (Homo sapiens, UniProt Q04759); assay: PKC isoform assay, Example 1; type: biochemical; parameters: purchased Pan Vera
Source text: as §1

PKCη [6] = target: T4, PKCη; assay: PKC isoform assay, Example 1; type: biochemical; parameters: purchased Pan Vera
Source text: as §1

PKCβ = target: T5, PKCβ (Homo sapiens, UniProt P05771); assay: PKC isoform assay, Example 1; type: biochemical
T5 construct: purchased Pan Vera
Experimental: (§2) Protein Kinase C Assay (general). The peptides […] (for PKC α, β and γ) and acetyl-[…] (for PKC ε and ζ) were used as substrates. […] Total reaction volume was 50 μL. […] Following an additional 5 min incubation at ambient temperature, 75 μL from each reaction well was transferred into each well of a Unifilter (P81 cellulose phosphate paper) assay plate and washed four times with 0.1% phosphoric acid in water. […] IC50 values were calculated using GraFit (Erithacus Software Limited) and Ki values were calculated using Enzyme Kinetics, SigmaPlot (SPSS Inc.)

PKCγ = PKCγ (Homo sapiens, UniProt P05129); assay: PKC isoform assay, Example 1; type: biochemical; parameters: purchased Pan Vera
Experimental: as §2

PKCτ = target: T6, PKCτ (Homo sapiens, UniProt P41743); assay: PKC isoform assay, Example 1; type: biochemical
T6 construct: purchased Pan Vera
T6 sequence (P41743 1-596): T1 sequence (P41743 1-596)
Source text: as §1

T4 sequence (P24723 whole entry, canonical isoform): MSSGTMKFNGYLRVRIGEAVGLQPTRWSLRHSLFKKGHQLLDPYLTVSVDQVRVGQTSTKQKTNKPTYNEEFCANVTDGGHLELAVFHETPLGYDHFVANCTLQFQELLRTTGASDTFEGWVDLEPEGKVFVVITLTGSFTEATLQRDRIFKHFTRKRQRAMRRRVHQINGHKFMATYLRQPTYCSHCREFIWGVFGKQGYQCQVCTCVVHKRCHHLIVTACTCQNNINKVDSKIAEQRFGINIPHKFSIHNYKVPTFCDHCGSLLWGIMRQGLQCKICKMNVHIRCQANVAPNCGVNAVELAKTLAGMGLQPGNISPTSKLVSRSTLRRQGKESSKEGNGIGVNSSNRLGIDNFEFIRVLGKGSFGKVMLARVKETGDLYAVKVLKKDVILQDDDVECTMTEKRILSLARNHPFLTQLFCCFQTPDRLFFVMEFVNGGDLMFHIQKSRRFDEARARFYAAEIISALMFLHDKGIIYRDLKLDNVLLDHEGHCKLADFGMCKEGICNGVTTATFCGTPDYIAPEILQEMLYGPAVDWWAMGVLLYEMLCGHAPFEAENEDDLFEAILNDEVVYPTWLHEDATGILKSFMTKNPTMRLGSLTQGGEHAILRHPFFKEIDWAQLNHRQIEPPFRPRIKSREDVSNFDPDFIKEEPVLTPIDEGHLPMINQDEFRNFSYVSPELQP
T2 sequence (Q05655 whole entry, canonical isoform): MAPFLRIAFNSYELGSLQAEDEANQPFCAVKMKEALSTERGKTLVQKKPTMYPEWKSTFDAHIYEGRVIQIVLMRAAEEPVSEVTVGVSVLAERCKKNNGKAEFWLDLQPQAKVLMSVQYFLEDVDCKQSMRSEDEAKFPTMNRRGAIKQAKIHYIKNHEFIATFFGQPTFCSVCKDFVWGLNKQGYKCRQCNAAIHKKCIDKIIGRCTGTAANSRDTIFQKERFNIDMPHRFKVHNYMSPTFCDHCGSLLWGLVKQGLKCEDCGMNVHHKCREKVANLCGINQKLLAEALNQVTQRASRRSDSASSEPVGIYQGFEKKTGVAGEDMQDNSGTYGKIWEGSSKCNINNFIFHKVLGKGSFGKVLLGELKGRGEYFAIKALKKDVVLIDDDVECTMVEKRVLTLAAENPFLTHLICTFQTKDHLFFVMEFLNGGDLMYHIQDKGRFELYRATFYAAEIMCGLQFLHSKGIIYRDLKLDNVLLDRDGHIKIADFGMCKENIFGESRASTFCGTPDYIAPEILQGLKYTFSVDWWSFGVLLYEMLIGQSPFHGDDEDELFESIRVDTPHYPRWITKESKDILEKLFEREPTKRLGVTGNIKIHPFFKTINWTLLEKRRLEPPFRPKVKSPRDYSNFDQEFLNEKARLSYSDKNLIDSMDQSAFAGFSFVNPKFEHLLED
PKCθ, sequence (Q04759 whole entry, canonical isoform): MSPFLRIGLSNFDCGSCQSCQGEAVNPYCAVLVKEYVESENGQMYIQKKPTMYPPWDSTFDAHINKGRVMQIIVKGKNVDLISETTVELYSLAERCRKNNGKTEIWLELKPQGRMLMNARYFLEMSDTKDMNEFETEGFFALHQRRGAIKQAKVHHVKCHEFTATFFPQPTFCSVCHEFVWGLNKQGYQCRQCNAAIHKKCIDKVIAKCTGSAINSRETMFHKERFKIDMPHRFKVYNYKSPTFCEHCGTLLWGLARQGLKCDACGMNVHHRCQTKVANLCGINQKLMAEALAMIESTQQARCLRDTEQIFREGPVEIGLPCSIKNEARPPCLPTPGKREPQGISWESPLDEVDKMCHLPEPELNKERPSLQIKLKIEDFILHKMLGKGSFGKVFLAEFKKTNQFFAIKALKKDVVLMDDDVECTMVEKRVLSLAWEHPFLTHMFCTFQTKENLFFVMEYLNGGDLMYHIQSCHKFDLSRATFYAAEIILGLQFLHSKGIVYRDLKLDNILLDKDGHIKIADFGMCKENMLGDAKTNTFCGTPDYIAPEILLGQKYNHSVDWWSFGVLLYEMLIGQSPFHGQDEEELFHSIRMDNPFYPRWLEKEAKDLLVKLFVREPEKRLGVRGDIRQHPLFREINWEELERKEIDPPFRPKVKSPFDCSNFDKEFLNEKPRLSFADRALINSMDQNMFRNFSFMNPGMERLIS
T5 sequence (P05771 whole entry, canonical isoform): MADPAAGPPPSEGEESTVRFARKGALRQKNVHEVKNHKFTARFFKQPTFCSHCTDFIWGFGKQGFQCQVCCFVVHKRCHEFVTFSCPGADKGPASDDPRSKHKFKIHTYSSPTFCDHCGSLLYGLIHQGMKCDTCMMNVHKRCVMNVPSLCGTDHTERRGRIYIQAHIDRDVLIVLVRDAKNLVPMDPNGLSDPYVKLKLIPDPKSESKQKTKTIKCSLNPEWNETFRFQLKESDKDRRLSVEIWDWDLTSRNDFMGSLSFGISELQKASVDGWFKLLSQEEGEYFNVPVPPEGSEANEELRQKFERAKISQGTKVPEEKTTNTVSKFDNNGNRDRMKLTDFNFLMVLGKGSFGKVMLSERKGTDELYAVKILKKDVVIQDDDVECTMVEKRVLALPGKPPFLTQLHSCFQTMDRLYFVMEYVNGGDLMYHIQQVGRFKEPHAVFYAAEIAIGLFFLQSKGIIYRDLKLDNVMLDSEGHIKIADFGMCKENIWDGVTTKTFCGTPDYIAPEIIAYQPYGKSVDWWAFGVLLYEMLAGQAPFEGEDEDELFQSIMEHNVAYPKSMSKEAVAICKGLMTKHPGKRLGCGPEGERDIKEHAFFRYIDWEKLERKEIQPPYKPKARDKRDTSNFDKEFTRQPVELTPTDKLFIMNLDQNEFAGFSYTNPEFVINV

- pKi (PKCα [2]): 9.10
- selectivity for PKCα versus PKCδ (PKCδ [5]): 2730 fold
- selectivity for PKCα versus PKCθ (PKCθ): 1210 fold
- selectivity for PKCα versus PKCη (PKCη [6]): 1310 fold
- selectivity for PKCα versus PKCβ (PKCβ): 385 fold
- selectivity for PKCα versus PKCγ (PKCγ): 580 fold
- selectivity for PKCα versus PKCτ (PKCτ): 940 fold
Structure (SMILES): CC(C)C[C@H](NC(=O)[C@H](C)NC(=O)CNC(=O)[C@H](CCCNC(=N)N)NC(=O)[C@H](CCCNC(=N)N)NC(=O)[C@H](C)NC(=O)Cc1ccc(Cl)c(Cl)c1)C(=O)N[C@@H](CCCNC(=N)N)C(=O)N[C@@H](CNC(=O)c1ccc(-n2cccc2)cc1)C(=O)N[C@@H](C)C(=O)NCCS [Compound 6] ({Phenylacetyl(3,4-Cl2)}-ARRGALR[Dap](Benzoyl(4-(pyrrol-1-yl)))A-Cysteamide)
- Fold selectivity (IC50), PKC ι (PKC ι): 940 fold
- Fold selectivity (IC50), PKC δ (PKCδ [1]): 2730 fold
- pKi (PKCα [3]; Lee et al., 2004, equals the Ki of compound 6 in Table 1, read-out: IC50 or Ki of the most potently inhibited isoform, PKC α (in parentheses)): 9.10
- Fold selectivity (IC50), PKC α (PKCα [3]; literature values, relative to most potently inhibited isoform (=1)): 1 fold
- Fold selectivity (IC50), PKC η (PKCη [4]): 1310 fold
